We go through two molecules from PMC7830917, “PEG-BHD1028 Peptide Regulates Insulin Resistance and Fatty Acid β-Oxidation, and Mitochondrial Biogenesis by Binding to Two Heterogeneous Binding Sites of Adiponectin Receptors, AdipoR1 and AdipoR2” (International Journal of Molecular Sciences, 2021).

In assay [1] the test system is C2C12 myotubes. Kind of assay: 2-Deoxy-D-glucose uptake, non-resistant C2C12 myotubes. The following applies: 100 nM insulin. Type of assay: cell-based, mouse. As to the method:
(§1) Skeletal muscle is the primary site of glucose metabolism, accounting for approximately […] of the entire body’s glucose uptake in the presence of insulin [22]. […] The effect of PEG-BHD1028 on glucose uptake in insulin-resistant C2C12 skeletal muscle cells was evaluated. To induce insulin resistance, differentiated C2C12 myotubes were treated with 0.6 mM palmitate and incubated for 16 h and then treated with 100 nM insulin and PEG-BHD1028 at concentrations of 100 and 500 nM for 30 min.
(§2) The 2-DG uptake of C2C12 cells was measured using the Glucose Uptake Assay Kit (Colorimetric, Ab136955, Abcam, Cambridge, UK) according to the manufacturer’s instruction. Palmitate to induce insulin resistance was prepared with minor modifications from the previous description. Briefly, palmitate was dissolved in 0.1 M NaOH to a concentration of 20 mM by heating at 75 °C and the dissolved solution was then diluted with 5% fatty acid-free bovine serum at a stock solution of 6 mM at 55 °C. Cells were treated with 0.6 mM palmitate overnight. The fixed cells were washed three times with DPBS, followed by incubation in Krebs-Ringer-Phosphate-Hepes (KRPH) buffer containing 2% fatty acid free-BSA for 40 min. […] Absorbance was measured using an Epoch microplate reader (BioTek Instruments, Inc., Winooski, VT, USA) at 412 nm.

Assay [2] concerns insulin-resistant C2C12 myotubes. Kind of assay: 2-Deoxy-D-glucose uptake, insulin-resistant C2C12 myotubes. The format is cell-based, mouse. To be noted: 0.6 mM palmitate; 100 nM insulin. As to the method:
as §1, §2

For assay [3] the following is noted: via AMPK, after binding to AdipoR1 and AdipoR2 in the hypothalamus; cited from earlier work. The text has this:
Besides the effect on the amelioration of insulin resistance, it has been widely known that adiponectin induces weight loss through fatty acid oxidation and energy expenditure. At the molecular level, adiponectin activates 5’ AMP-activated protein kinase (AMPK) and peroxisome proliferator-activated receptor alpha (PPARα) signal pathways. AMPK pathway ultimately enhances mitochondrial biogenesis and fatty acid β-oxidation, and the activated PPARα promotes uptake, utilization, and catabolism of fatty acids by upregulating the genes involved in fatty acid transport, fatty acid-binding ...

Assay [4] has as its system diabetic swine. To be noted: cited from earlier work. The text has this: It has also been well accepted that adiponectin alleviates insulin resistance, and adiponectin deficiency leads to abnormal glucose metabolism. Thus, insulin resistance has been recognized as the most fundamental root cause of type 2 diabetes mellitus, and the concentration of circulating adiponectin is negatively correlated with insulin resistance. […] Recent studies also have shown that p38 MAPK acts as an essential mediator in regulating adiponectin-induced ...

Consider insulin: insulin, for which, in assay [1], the “glucose uptake, non-resistant cells, insulin alone” value is on record as “significantly increased”. The “glucose uptake, insulin-resistant cells, insulin alone” value in assay [2] is “not observed”.

B1: adiponectin: hormone, endogenous ligand of AdipoR1 and AdipoR2 (protein, UniProt Q15848 19-244, looked up)
Adiponectin: ETTTQGPGVLLPLPKGACTGWMAGIPGHPGHNGAPGRDGRDGTPGEKGEKGDPGLIGPKGDIGETGVPGAEGPRGFPGIQGRKGEPGEGAYVYRSAFSVGLETYVTIPNMPIRFTKIFYNQQNHYDGSTGKFHCNIPGLYYFAYHITVYMKDVKVSLFKKDKAMLFTYDQYQENNVDQASGSVLLHLEVGDQVWLQVYGEGERNGLYADNDNDSTFTGFLLYHDTN
In the case of B1, in assay [3], the appetite result is “induced appetite”. Moreover, in assay [4], the “glucose metabolism / insulin sensitivity” value is listed as “enhanced glucose metabolism by improving insulin sensitivity”.
